How the values were obtained:
PKCθ = PKCθ (Homo sapiens, UniProt Q04759); assay: Ki Pan Vera (PV) PKCθ; format: biochemical
Description: (§1) For Ki Pan Vera (PV) of PKCθ, entries identified with “A” had values below 100 nM; entries identified with “B” had values below 1 μM.

PKC delta = PKC delta (Homo sapiens, UniProt Q05655); assay: Ki Pan Vera (PV) PKC delta; format: biochemical
PKC alpha = PKC alpha (Homo sapiens, UniProt P17252); assay: Ki Pan Vera (PV) PKC alpha; format: biochemical
Description: [Worded in the source for another target; this target is reported under the same test.] as §1

[1] = tested on: anti-CD3 induced interleukin-2 (IL-2) production; assay: anti-CD3 induced IL-2 production in mice; format: in vivo
Description: The compounds of the invention were also tested in vivo.

SGK1 = target: T1, SGK1 (Homo sapiens, UniProt O00141); assay: IC50 for kinase SGK (selectivity); format: biochemical
T1 sequence (O00141 1-431): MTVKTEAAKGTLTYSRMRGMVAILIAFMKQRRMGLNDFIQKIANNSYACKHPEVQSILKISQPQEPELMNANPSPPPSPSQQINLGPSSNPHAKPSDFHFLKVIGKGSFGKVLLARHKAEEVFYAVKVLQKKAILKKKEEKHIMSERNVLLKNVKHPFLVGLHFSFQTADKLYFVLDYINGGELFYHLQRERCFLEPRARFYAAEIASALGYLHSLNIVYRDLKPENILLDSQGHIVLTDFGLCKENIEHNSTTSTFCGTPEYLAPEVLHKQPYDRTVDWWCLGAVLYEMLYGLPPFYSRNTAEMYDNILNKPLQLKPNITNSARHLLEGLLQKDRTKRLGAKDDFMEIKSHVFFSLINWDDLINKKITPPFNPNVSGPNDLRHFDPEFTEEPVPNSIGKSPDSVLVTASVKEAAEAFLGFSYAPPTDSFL
Description: Entries identified with “1” had values above 15 nM; entries identified with “2” had values above 100 nM; entries identified with “3” had values above 1 μM; entries identified with “4” had values above 10 μM. In Table 2, “nd” stands for “not determined.”

Sequence of PKCθ (Q04759 whole entry): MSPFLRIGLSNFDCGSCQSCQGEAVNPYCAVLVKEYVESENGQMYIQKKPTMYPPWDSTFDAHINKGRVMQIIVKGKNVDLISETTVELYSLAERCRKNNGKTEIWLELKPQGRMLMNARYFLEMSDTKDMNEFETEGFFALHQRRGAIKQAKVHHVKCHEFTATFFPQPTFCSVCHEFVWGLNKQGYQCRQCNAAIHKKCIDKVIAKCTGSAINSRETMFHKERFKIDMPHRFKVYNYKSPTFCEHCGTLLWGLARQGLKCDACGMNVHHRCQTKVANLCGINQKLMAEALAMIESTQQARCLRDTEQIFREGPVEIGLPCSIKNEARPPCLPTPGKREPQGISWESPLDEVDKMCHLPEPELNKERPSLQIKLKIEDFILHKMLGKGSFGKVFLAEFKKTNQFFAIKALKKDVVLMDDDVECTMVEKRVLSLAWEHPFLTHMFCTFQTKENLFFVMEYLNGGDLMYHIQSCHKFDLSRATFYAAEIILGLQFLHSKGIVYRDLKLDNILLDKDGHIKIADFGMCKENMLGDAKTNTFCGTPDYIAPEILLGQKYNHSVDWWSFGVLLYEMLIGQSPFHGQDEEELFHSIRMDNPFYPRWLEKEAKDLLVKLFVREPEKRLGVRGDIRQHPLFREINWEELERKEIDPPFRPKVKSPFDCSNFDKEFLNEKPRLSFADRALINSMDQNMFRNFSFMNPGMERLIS
Sequence of PKC delta (Q05655 whole entry): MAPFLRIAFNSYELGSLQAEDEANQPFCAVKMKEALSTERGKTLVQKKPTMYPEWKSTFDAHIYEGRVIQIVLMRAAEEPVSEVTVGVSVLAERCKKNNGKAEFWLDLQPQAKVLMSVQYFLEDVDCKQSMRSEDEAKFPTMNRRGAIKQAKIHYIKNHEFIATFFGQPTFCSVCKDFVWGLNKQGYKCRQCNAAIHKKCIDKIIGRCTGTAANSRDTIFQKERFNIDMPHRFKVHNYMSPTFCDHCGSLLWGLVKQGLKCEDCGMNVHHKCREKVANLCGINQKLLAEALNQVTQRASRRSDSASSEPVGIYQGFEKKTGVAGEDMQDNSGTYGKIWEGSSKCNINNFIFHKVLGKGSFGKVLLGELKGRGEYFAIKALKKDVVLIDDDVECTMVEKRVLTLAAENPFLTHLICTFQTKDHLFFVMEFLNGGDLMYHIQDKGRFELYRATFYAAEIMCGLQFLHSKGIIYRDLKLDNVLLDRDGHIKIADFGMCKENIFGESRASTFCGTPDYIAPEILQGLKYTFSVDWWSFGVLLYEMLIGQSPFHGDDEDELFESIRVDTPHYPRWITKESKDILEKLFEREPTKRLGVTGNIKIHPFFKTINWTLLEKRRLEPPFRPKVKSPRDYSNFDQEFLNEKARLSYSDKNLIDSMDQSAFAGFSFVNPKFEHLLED

| Structure (SMILES) | Ki (PKCθ) | Ki (PKC delta) | Ki (PKC alpha) | % inhibition of IL-2 production ([1]; subcutaneous dose 30 mg/kg) | IC50 (SGK1) | IC50-SGK1 (nM) (SGK1) | % inhibition of IL-2 production ([1]; subcutaneous dose 1 mg/kg) |
| --- | --- | --- | --- | --- | --- | --- | --- |
| O=c1[nH]c2cnc(NC[C@@H]3CCNC3)nc2n1Cc1c(Cl)cccc1Cl [Compound 101] | < 0.1 µM | > 0.015 µM | > 1 µM | 39% | – | – | – |
| O=c1[nH]c2cnc(NC[C@H]3CCNC3)nc2n1Cc1ccccc1Cl [Compound 103] | < 0.1 µM | > 0.015 µM | > 1 µM | – | > 1 µM | – | – |
| O=c1[nH]c2cnc(NCC3CCNC3)nc2n1Cc1ccccc1Br (centres unmarked) [Compound 104] | < 0.1 µM | > 0.015 µM | > 1 µM | – | > 10 µM | – | – |
| O=c1[nH]c2cnc(NCC3CCNC3)nc2n1Cc1cc(F)ccc1C(F)(F)F (centres unmarked) [Compound 105] | < 0.1 µM | > 0.015 µM | > 1 µM | – | > 1 µM | – | – |
| O=c1[nH]c2cnc(NCC3CCNC3)nc2n1Cc1c(F)cccc1Cl (centres unmarked) [Compound 106] | < 0.1 µM | > 0.015 µM | > 1 µM | – | > 10 µM | – | – |
| O=c1[nH]c2cnc(NC[C@@H]3CCNC3)nc2n1Cc1cccc(Cl)c1Cl [Compound 107] | < 0.1 µM | > 0.015 µM | > 1 µM | 45% | – | – | – |
| O=c1[nH]c2cnc(NCC3CCNC3)nc2n1Cc1c(Cl)cccc1Cl (centres unmarked) [Compound 108] | < 0.1 µM | > 0.015 µM | > 1 µM | – | > 10 µM | – | – |
| O=c1[nH]c2cnc(NCC3CCNC3)nc2n1Cc1ccccc1C(F)(F)F (centres unmarked) [Compound 109] | < 0.1 µM | > 0.015 µM | > 1 µM | – | – | – | – |
| O=c1[nH]c2cnc(NCC3CCNC3)nc2n1Cc1ccccc1OC(F)(F)F (centres unmarked) [Compound 112] | < 0.1 µM | > 0.1 µM | > 1 µM | – | – | Inactive | – |
| O=c1[nH]c2cnc(NCC3CCNC3)nc2n1Cc1ccccc1Cl (centres unmarked) [Compound 113] | < 0.1 µM | > 0.015 µM | > 1 µM | – | > 10 µM | – | – |
| O=c1[nH]c2cnc(NCC3CCNC3)nc2n1Cc1cccc(Cl)c1Cl (centres unmarked) [Compound 114] | < 0.1 µM | > 0.1 µM | > 10 µM | – | > 10 µM | – | – |
| O=c1[nH]c2cnc(NC[C@@H]3CCNC3)nc2n1Cc1ccccc1C(F)(F)F [Compound 116] | < 0.1 µM | > 0.1 µM | > 1 µM | – | > 10 µM | – | – |
| NCCCNc1ncc2[nH]c(=O)n(Cc3cccc(Cl)c3Cl)c2n1 [Compound 117] | < 0.1 µM | > 0.1 µM | > 10 µM | – | – | Inactive | – |
| NCCCNc1ncc2[nH]c(=O)n(Cc3c(F)cccc3Cl)c2n1 [Compound 118] | < 0.1 µM | > 0.1 µM | > 10 µM | – | – | Inactive | – |
| O=c1[nH]c2cnc(NCC3CCNC3)nc2n1Cc1c(F)cccc1F (centres unmarked) [Compound 119] | < 0.1 µM | > 0.1 µM | > 10 µM | – | – | Inactive | – |
| O=c1[nH]c2cnc(NC[C@H]3CCNC3)nc2n1Cc1ccccc1C(F)(F)F [Compound 122] | < 0.1 µM | > 0.1 µM | > 1 µM | – | – | Inactive | – |
| NCCCNc1ncc2[nH]c(=O)n(Cc3ccccc3Cl)c2n1 [Compound 124] | < 0.1 µM | > 0.1 µM | > 10 µM | – | > 10 µM | – | – |
| NCCCNc1ncc2[nH]c(=O)n(Cc3ccccc3Br)c2n1 [Compound 127] | < 0.1 µM | > 0.1 µM | > 10 µM | – | > 1 µM | – | – |
| O=c1[nH]c2cnc(NC[C@@H]3CCNC3)nc2n1Cc1ccccc1Cl [Compound 128] | < 1 µM | > 0.1 µM | > 10 µM | – | > 10 µM | – | – |
| NCCCNc1ncc2[nH]c(=O)n(Cc3c(F)cccc3F)c2n1 [Compound 129] | < 0.1 µM | > 0.1 µM | > 10 µM | – | – | Inactive | – |
| NCCCNc1ncc2[nH]c(=O)n(Cc3cc(F)ccc3C(F)(F)F)c2n1 [Compound 133] | < 0.1 µM | > 0.1 µM | > 10 µM | – | > 1 µM | – | – |
| NCCCNc1ncc2[nH]c(=O)n(Cc3ccccc3C(F)(F)F)c2n1 [Compound 136] | < 0.1 µM | > 0.1 µM | > 10 µM | – | – | Inactive | – |
| O=c1[nH]c2cnc(NC[C@@H]3CCCNC3)nc2n1Cc1c(Cl)cccc1Cl [Compound 138] | < 0.1 µM | > 0.1 µM | > 10 µM | – | > 10 µM | – | – |
| NCCCNc1ncc2[nH]c(=O)n(Cc3ccccc3OC(F)(F)F)c2n1 [Compound 139] | < 1 µM | > 1 µM | > 10 µM | – | – | Inactive | – |

| Structure (SMILES) | Ki (PKCθ) | Ki (PKC delta) | Ki (PKC alpha) | % inhibition of IL-2 production ([1]; subcutaneous dose 30 mg/kg) | IC50 (SGK1) | IC50-SGK1 (nM) (SGK1) | % inhibition of IL-2 production ([1]; subcutaneous dose 1 mg/kg) |
| --- | --- | --- | --- | --- | --- | --- | --- |
| O=c1[nH]c2cnc(NC[C@H]3CCCNC3)nc2n1Cc1c(Cl)cccc1Cl [Compound 140] | < 1 µM | > 0.1 µM | > 10 µM | – | > 10 µM | – | – |
| O=c1[nH]c2cnc(NC[C@H]3CCCNC3)nc2n1Cc1ccccc1Br [Compound 141] | < 1 µM | > 0.1 µM | > 10 µM | – | – | Inactive | – |
| O=c1[nH]c2cnc(NC[C@H]3CCCNC3)nc2n1Cc1ccccc1C(F)(F)F [Compound 142] | < 1 µM | > 0.1 µM | > 10 µM | – | > 10 µM | – | – |
| O=c1[nH]c2cnc(NC[C@@H]3CCCNC3)nc2n1Cc1ccccc1C(F)(F)F [Compound 144] | < 1 µM | > 0.1 µM | > 10 µM | – | > 10 µM | – | – |
| O=c1[nH]c2cnc(NCC3CCNCC3)nc2n1Cc1ccccc1C(F)(F)F [Compound 145] | < 1 µM | > 1 µM | > 10 µM | – | – | Inactive | – |
| O=c1[nH]c2ccc(NC[C@@H]3CCNC3)nc2n1Cc1c(Cl)cccc1Cl [Compound 147, (R)-3-(2,6-Dichlorobenzyl)-5-(pyrrolidin-3-ylmethylamino)-1H-imidazo[4,5-b]pyridin-2(3H)-one] | < 0.1 µM | > 0.015 µM | > 1 µM | – | > 10 µM | – | – |
| O=c1[nH]c2ccc(NC[C@H]3CCNC3)nc2n1Cc1c(Cl)cccc1Cl [Compound 148] | < 0.1 µM | > 0.1 µM | > 10 µM | – | – | – | – |
| NCCCNc1ccc2[nH]c(=O)n(Cc3c(Cl)cccc3Cl)c2n1 [Compound 149] | < 0.1 µM | > 0.1 µM | > 10 µM | – | – | Inactive | – |
| O=c1[nH]c2cnc(NCC3CCNCC3)nc2n1Cc1ccccc1Br [Compound 201] | < 1 µM | > 0.1 µM | > 1 µM | – | > 10 µM | – | – |
| O=c1[nH]c2cnc(NCC3CCCNC3)nc2n1Cc1ccccc1Cl (centres unmarked) [Compound 203] | < 1 µM | > 0.1 µM | > 10 µM | – | – | Inactive | – |
| O=c1[nH]c2cnc(NCC3CCNC3)nc2n1Cc1ccccc1F (centres unmarked) [Compound 204] | < 1 µM | > 0.1 µM | > 10 µM | – | > 10 µM | – | – |
| O=c1[nH]c2cnc(NCC3CCNCC3)nc2n1Cc1c(Cl)cccc1Cl [Compound 205] | < 1 µM | > 0.1 µM | > 10 µM | – | – | Inactive | – |
| O=c1[nH]c2cnc(NCC3CCNCC3)nc2n1Cc1ccccc1Cl [Compound 206] | < 1 µM | > 0.1 µM | > 10 µM | – | – | Inactive | – |
| O=c1[nH]c2cnc(NCCCn3ccnc3)nc2n1Cc1c(Cl)cccc1C(F)(F)F [Compound 207] | < 1 µM | > 0.1 µM | > 10 µM | – | – | – | – |
| NCCCNc1ncc2[nH]c(=O)n(Cc3ccccc3F)c2n1 [Compound 208] | < 1 µM | > 0.1 µM | > 10 µM | – | – | Inactive | – |
| NCCCNc1ncc2[nH]c(=O)n(Cc3cccc(Cl)c3)c2n1 [Compound 214] | < 1 µM | > 1 µM | > 10 µM | – | – | – | – |
| O=c1[nH]c2cnc(NCC3CCNCC3)nc2n1Cc1cccc(Cl)c1 [Compound 215] | < 1 µM | > 1 µM | > 10 µM | – | – | – | – |
| Cc1ccccc1Cn1c(=O)[nH]c2cnc(NCCCN)nc21 [Compound 216] | < 1 µM | > 1 µM | > 10 µM | – | – | – | – |
| COc1ccccc1Cn1c(=O)[nH]c2cnc(NCCCN)nc21 [Compound 218] | < 1 µM | > 1 µM | > 10 µM | – | – | – | – |
| O=c1[nH]c2cnc(NCC3CCNCC3)nc2n1-c1cccc(Cl)c1 [Compound 224] | < 1 µM | > 1 µM | > 1 µM | – | – | – | – |
| O=c1[nH]c2cnc(NCC3CCNC3)nc2n1[C@@H]1CCc2ccccc21 (some centres unmarked) [Compound 231] | < 1 µM | > 1 µM | > 10 µM | – | – | – | – |
| NCCCNc1ccc2[nH]c(=O)n(Cc3ccccc3Cl)c2n1 [Compound 241] | < 1 µM | > 0.1 µM | > 10 µM | – | – | Inactive | – |
| C=CC[C@@H]1/C=C(\C)C[C@H](C)C[C@H](OC)[C@H]2O[C@@](O)(C(=O)C(=O)N3CCCC[C@H]3C(=O)O[C@H](/C(C)=C/[C@@H]3CC[C@@H](O)[C@H](OC)C3)[C@H](C)[C@@H](O)CC1=O)[C@H](C)C[C@@H]2OC [FK506, reference compound] | – | – | – | – | – | – | 87% |

Source: patent publication US7989459B2, “Purinones and 1H-imidazopyridinones as PKC-theta inhibitors” (Pharmacopeia, LLC, priority 2006, dated 2011)
